Columns and labels:
Test in all cases: relative viability (nuclei count vs DMSO), 5 days (fraction); higher = more cells survive
[1] = system: NCI-H1437
Summary of the method: (§1)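 Lung cancer cell lines in 1536-well plates were dosed by pin tool the day after seeding, either with one drug alone or with a fixed anchor-drug dose plus five library-drug doses (not always all listed) in √10 steps. After 5 days, cells were fixed and their nuclei stained in one step (final 0.05% Triton X-100, 1% formaldehyde, 1 ug/ml Hoechst), then counted on 4× images. Relative viability is the nuclei count in treated wells divided by that in vehicle wells. Values are medians of duplicate plates.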

[2] = system: NCI-H23
Summary of the method: as §1

[3] = system: HCC-366
Summary of the method: as §1

[4] = system: SW 1573
Summary of the method: as §1

[5] = system: NCI-H727
Summary of the method: as §1

[6] = system: NCI-H460
Summary of the method: as §1

[7] = system: HCC-827
Summary of the method: as §1

[8] = system: CAL-12T
Summary of the method: as §1

[9] = system: LCLC-103H
Summary of the method: as §1

[10] = system: HOP-62
Summary of the method: as §1

[11] = system: SK-LU-1
Summary of the method: as §1

[12] = system: NCI-H1395
Summary of the method: as §1

[13] = system: EMC-BAC-2
Summary of the method: as §1

[14] = system: COR-L 105
Summary of the method: as §1

[15] = system: NCI-H1915
Summary of the method: as §1

[16] = system: HARA
Summary of the method: as §1

[17] = system: NCI-H2228
Summary of the method: as §1

[18] = system: NCI-H2009
Summary of the method: as §1

[19] = system: NCI-H1755
Summary of the method: as §1

[20] = system: A-427
Summary of the method: as §1

O=c1cc(-c2cccc3c2Sc2ccccc2S3)oc(N2CCOCC2)c1 + COc1cc2c(Oc3ccc(NC(=O)C4(C(=O)Nc5ccc(F)cc5)CC4)cc3F)ccnc2cc1OCCCN1CCOCC1 [Foretinib] (partner 0.25 µM)
relative viability ([1]; first compound 0.08 µM): 1.27 | relative viability ([1]; first compound 0.253 µM): 1.41 | relative viability ([1]; first compound 0.8 µM): 1.32 | relative viability ([1]; first compound 2.53 µM): 1.23 | relative viability ([1]; first compound 8 µM): 1.33 | relative viability ([2]; first compound 0.08 µM): 0.96 | relative viability ([2]; first compound 0.253 µM): 1.14 | relative viability ([2]; first compound 0.8 µM): 0.906 | relative viability ([2]; first compound 2.53 µM): 0.886 | relative viability ([2]; first compound 8 µM): 0.898 | relative viability ([3]; first compound 0.08 µM): 0.911 | relative viability ([3]; first compound 0.253 µM): 0.89 | relative viability ([3]; first compound 0.8 µM): 0.635 | relative viability ([3]; first compound 2.53 µM): 0.903 | relative viability ([3]; first compound 8 µM): 1.03 | relative viability ([4]; first compound 0.08 µM): 0.8 | relative viability ([4]; first compound 0.253 µM): 0.916 | relative viability ([4]; first compound 0.8 µM): 0.783 | relative viability ([4]; first compound 2.53 µM): 0.989 | relative viability ([4]; first compound 8 µM): 1 | relative viability ([5]; first compound 0.08 µM): 0.552 | relative viability ([5]; first compound 0.253 µM): 0.867 | relative viability ([5]; first compound 0.8 µM): 0.904 | relative viability ([5]; first compound 2.53 µM): 0.842 | relative viability ([5]; first compound 8 µM): 1.21 | relative viability ([6]; first compound 0.08 µM): 1.04 | relative viability ([6]; first compound 0.253 µM): 1.01 | relative viability ([6]; first compound 0.8 µM): 0.963 | relative viability ([6]; first compound 2.53 µM): 1.02 | relative viability ([6]; first compound 8 µM): 1.13 | relative viability ([7]; first compound 0.08 µM): 0.94 | relative viability ([7]; first compound 0.253 µM): 1.12 | relative viability ([7]; first compound 0.8 µM): 1.07 | relative viability ([7]; first compound 2.53 µM): 0.863 | relative viability ([7]; first compound 8 µM): 1.02 | relative viability ([8]; first compound 0.08 µM): 0.951 | relative viability ([8]; first compound 0.253 µM): 1.15 | relative viability ([8]; first compound 0.8 µM): 1.19 | relative viability ([8]; first compound 2.53 µM): 1.14 | relative viability ([8]; first compound 8 µM): 1 | relative viability ([9]; first compound 0.08 µM): 0.721 | relative viability ([9]; first compound 0.253 µM): 0.831 | relative viability ([9]; first compound 0.8 µM): 0.794 | relative viability ([9]; first compound 2.53 µM): 0.71 | relative viability ([9]; first compound 8 µM): 0.712 | relative viability ([10]; first compound 0.08 µM): 1.23 | relative viability ([10]; first compound 0.253 µM): 1.27 | relative viability ([10]; first compound 0.8 µM): 1.25 | relative viability ([10]; first compound 2.53 µM): 1.02 | relative viability ([10]; first compound 8 µM): 1.14 | relative viability ([11]; first compound 0.08 µM): 0.787 | relative viability ([11]; first compound 0.253 µM): 1.05 | relative viability ([11]; first compound 0.8 µM): 0.906 | relative viability ([11]; first compound 2.53 µM): 0.842 | relative viability ([11]; first compound 8 µM): 0.831 | relative viability ([12]; first compound 0.08 µM): 0.934 | relative viability ([12]; first compound 0.253 µM): 0.887 | relative viability ([12]; first compound 0.8 µM): 1.07 | relative viability ([12]; first compound 2.53 µM): 0.938 | relative viability ([12]; first compound 8 µM): 1.09 | relative viability ([13]; first compound 0.08 µM): 0.998 | relative viability ([13]; first compound 0.253 µM): 0.987 | relative viability ([13]; first compound 0.8 µM): 1 | relative viability ([13]; first compound 2.53 µM): 1.03 | relative viability ([13]; first compound 8 µM): 1.12 | relative viability ([14]; first compound 0.08 µM): 1.31 | relative viability ([14]; first compound 0.253 µM): 0.854 | relative viability ([14]; first compound 0.8 µM): 0.8 | relative viability ([14]; first compound 2.53 µM): 1.08 | relative viability ([14]; first compound 8 µM): 1.38 | relative viability ([15]; first compound 0.08 µM): 1.21 | relative viability ([15]; first compound 0.253 µM): 1.2 | relative viability ([15]; first compound 0.8 µM): 1.08 | relative viability ([15]; first compound 2.53 µM): 1.06 | relative viability ([15]; first compound 8 µM): 1.11 | relative viability ([16]; first compound 0.08 µM): 0.934 | relative viability ([16]; first compound 0.253 µM): 0.956 | relative viability ([16]; first compound 0.8 µM): 0.961 | relative viability ([16]; first compound 2.53 µM): 0.898 | relative viability ([16]; first compound 8 µM): 0.777 | relative viability ([17]; first compound 0.08 µM): 0.753 | relative viability ([17]; first compound 0.253 µM): 0.907 | relative viability ([17]; first compound 0.8 µM): 0.966 | relative viability ([17]; first compound 2.53 µM): 0.813 | relative viability ([17]; first compound 8 µM): 1.11 | relative viability ([18]; first compound 0.08 µM): 1.23 | relative viability ([18]; first compound 0.253 µM): 1.21 | relative viability ([18]; first compound 0.8 µM): 1.15 | relative viability ([18]; first compound 2.53 µM): 1.12 | relative viability ([18]; first compound 8 µM): 1.19 | relative viability ([19]; first compound 0.08 µM): 0.861 | relative viability ([19]; first compound 0.253 µM): 0.976 | relative viability ([19]; first compound 0.8 µM): 0.913 | relative viability ([19]; first compound 2.53 µM): 0.899 | relative viability ([19]; first compound 8 µM): 0.943 | relative viability ([20]; first compound 0.08 µM): 1.05 | relative viability ([20]; first compound 0.253 µM): 1 | relative viability ([20]; first compound 0.8 µM): 1.06 | relative viability ([20]; first compound 8 µM): 1.11

COc1nc(C)cnc1NS(=O)(=O)c1cccnc1-c1ccc(-c2nnco2)cc1 [Zibotentan] + COc1cc2c(Oc3ccc(NC(=O)C4(C(=O)Nc5ccc(F)cc5)CC4)cc3F)ccnc2cc1OCCCN1CCOCC1 [Foretinib] (partner 0.25 µM)
relative viability ([1]; first compound 0.08 µM): 1.27 | relative viability ([1]; first compound 0.253 µM): 1.18 | relative viability ([1]; first compound 0.8 µM): 1.26 | relative viability ([1]; first compound 2.53 µM): 1.26 | relative viability ([2]; first compound 0.08 µM): 1.08 | relative viability ([2]; first compound 0.253 µM): 0.766 | relative viability ([2]; first compound 0.8 µM): 0.986 | relative viability ([2]; first compound 2.53 µM): 1.17 | relative viability ([3]; first compound 0.08 µM): 0.977 | relative viability ([3]; first compound 0.253 µM): 0.903 | relative viability ([3]; first compound 0.8 µM): 0.964 | relative viability ([3]; first compound 2.53 µM): 0.976 | relative viability ([4]; first compound 0.08 µM): 0.966 | relative viability ([4]; first compound 0.253 µM): 0.692 | relative viability ([4]; first compound 0.8 µM): 0.983 | relative viability ([4]; first compound 2.53 µM): 0.82 | relative viability ([5]; first compound 0.08 µM): 1.07 | relative viability ([5]; first compound 0.253 µM): 0.862 | relative viability ([5]; first compound 0.8 µM): 0.893 | relative viability ([5]; first compound 2.53 µM): 0.811 | relative viability ([6]; first compound 0.08 µM): 1.09 | relative viability ([6]; first compound 0.253 µM): 0.827 | relative viability ([6]; first compound 0.8 µM): 0.986 | relative viability ([6]; first compound 2.53 µM): 1.05 | relative viability ([7]; first compound 0.08 µM): 1.06 | relative viability ([7]; first compound 0.253 µM): 1.01 | relative viability ([7]; first compound 0.8 µM): 1.11 | relative viability ([7]; first compound 2.53 µM): 1.09 | relative viability ([8]; first compound 0.08 µM): 1.21 | relative viability ([8]; first compound 0.253 µM): 0.923 | relative viability ([8]; first compound 0.8 µM): 1.13 | relative viability ([8]; first compound 2.53 µM): 1.12 | relative viability ([9]; first compound 0.08 µM): 0.928 | relative viability ([9]; first compound 0.253 µM): 0.886 | relative viability ([9]; first compound 0.8 µM): 0.797 | relative viability ([9]; first compound 2.53 µM): 0.838 | relative viability ([10]; first compound 0.08 µM): 1.06 | relative viability ([10]; first compound 0.253 µM): 1.06 | relative viability ([10]; first compound 0.8 µM): 1.21 | relative viability ([10]; first compound 2.53 µM): 1.07 | relative viability ([11]; first compound 0.08 µM): 0.842 | relative viability ([11]; first compound 0.253 µM): 0.873 | relative viability ([11]; first compound 0.8 µM): 0.855 | relative viability ([11]; first compound 2.53 µM): 0.827 | relative viability ([12]; first compound 0.08 µM): 1.02 | relative viability ([12]; first compound 0.253 µM): 1.07 | relative viability ([12]; first compound 0.8 µM): 1.04 | relative viability ([12]; first compound 2.53 µM): 0.941 | relative viability ([13]; first compound 0.08 µM): 1.07 | relative viability ([13]; first compound 0.8 µM): 1.05 | relative viability ([13]; first compound 2.53 µM): 1.05 | relative viability ([14]; first compound 0.08 µM): 1.31 | relative viability ([14]; first compound 0.253 µM): 0.996 | relative viability ([14]; first compound 0.8 µM): 1.1 | relative viability ([14]; first compound 2.53 µM): 1.03 | relative viability ([15]; first compound 0.08 µM): 1.16 | relative viability ([15]; first compound 0.253 µM): 1.1 | relative viability ([15]; first compound 0.8 µM): 1.06 | relative viability ([15]; first compound 2.53 µM): 1.07 | relative viability ([16]; first compound 0.08 µM): 1 | relative viability ([16]; first compound 0.253 µM): 0.743 | relative viability ([16]; first compound 0.8 µM): 0.883 | relative viability ([16]; first compound 2.53 µM): 0.874 | relative viability ([17]; first compound 0.08 µM): 0.714 | relative viability ([17]; first compound 0.253 µM): 0.819 | relative viability ([17]; first compound 0.8 µM): 0.889 | relative viability ([17]; first compound 2.53 µM): 0.801 | relative viability ([18]; first compound 0.08 µM): 1.25 | relative viability ([18]; first compound 0.253 µM): 1.24 | relative viability ([18]; first compound 0.8 µM): 1.28 | relative viability ([18]; first compound 2.53 µM): 1.35 | relative viability ([19]; first compound 0.08 µM): 0.943 | relative viability ([19]; first compound 0.253 µM): 0.897 | relative viability ([19]; first compound 0.8 µM): 0.897 | relative viability ([19]; first compound 2.53 µM): 0.929 | relative viability ([20]; first compound 0.08 µM): 1.14 | relative viability ([20]; first compound 0.253 µM): 1.1 | relative viability ([20]; first compound 0.8 µM): 1.1 | relative viability ([20]; first compound 2.53 µM): 1.19

From the supplement of paper PMC10307832
